For test [1], the system named is vinblastine-resistant sub-cell line (CCRF-CEM/VBL). Description: in vitro cytotoxicity, PrestoBlue assay. The class given is cell-based, human. The note with it: for IC50: read-out: IC50 CEM/VBL; for resistance factor (IC50 CEM/VBL vs IC50 of the parent cell line): number in brackets. The protocol:
(§1) All representative compounds of Formulae (I-A) and (I-B) were first evaluated for their in vitro cytotoxicity to human lymphoblastic leukemia cell line (CCRF-CEM) and its vinblastine-resistant sub-cell line (CCRF-CEM/VBL) (see Table 1).
(§2) After a 72-hr incubation in various concentrations of the newly synthesized compounds, the cytotoxic effects of them to all cell lines were determined by the PrestoBlue®(Invitrogen) assay using a microplate spectrophotometer. Briefly, at the end of treatment, an aliquot of PrestoBlue® solution was added and then cells were incubated at 37° C. for 1-2 hr. The absorbance at 570 and 600 nm was measured with a microplate reader. […] The ICso is defined by the concentration required to inhibit tumor cell growth by 50%. Data represent the mean±STDEV of three to six independent experiments for each compound.

The test system of test [2] is human lymphoblastic leukemia cell line (CCRF-CEM). Description: in vitro cytotoxicity, PrestoBlue assay. To be noted: read-out: IC50 CCRF-CEM. The class given is cell-based. Here is the method: as §1, §2
The next test has as its system colon cancer HCT-116. The experiment in a line: in vitro cytotoxicity, PrestoBlue assay. The class given is cell-based, human. The note with it: Table 2. The protocol: as §1, §2
Test [3] concerns non-small cell lung cancer H460. Description: in vitro cytotoxicity, PrestoBlue assay. It is filed as cell-based, human. To be noted: Table 2. The protocol: as §1, §2
Another test relates to pancreatic cancer PacaS1. Description: in vitro cytotoxicity, PrestoBlue assay. The class given is cell-based, human. To be noted: Table 2. Here is the method:
as §1, §2

Test [4] has as its system small cell lung cancer H526. Description: in vitro cytotoxicity, PrestoBlue assay. The note with it: read-out: IC50 H526. It is filed as cell-based, human.
Another test has as its system H211. Description: in vitro cytotoxicity to SCLC cells. The class given is cell-based, human. To be noted: Table 3. The protocol: as §2
The subject of a further test is H82. The experiment in a line: in vitro cytotoxicity to SCLC cells. The class given is cell-based, human. To be noted: Table 3. The protocol: as §2
For the next test, the system named is H146. Description: in vitro cytotoxicity to SCLC cells. It is filed as cell-based, human. The note with it: Table 3. Here is the method: as §2
For another test, the system named is H1417. The experiment in a line: in vitro cytotoxicity to SCLC cells. It is filed as cell-based, human. To be noted: Table 3. Here is the method: as §2
[5] abbreviates: 72-hr incubation, mean ± STDEV of three to six experiments.
Setting [6] is: Homo sapiens, CCRF-CEM, footnote d: IC50 values in nM.

Where two headings read alike, the source gives them in different places.

As for `Cc1c(COC(=O)NC(C)C)c(COC(=O)NC(C)C)c2c3ccccc3c(N3CCCCC3)nn12` [BO-2722], the IC50 in test [1] (setting [5]) was 1730 ± 90 nM; in [2] (setting [5]), 1920 ± 110 nM. In addition, the “resistance factor (IC50 CEM/VBL vs IC50 of the parent cell line)” value in test [1] is 0.90 ×.
Turning to `CCNC(=O)OCc1c(COC(=O)NCC)c2c3ccccc3c(N(C)C)nn2c1C` [BO-2786], the IC50 with colon cancer HCT-116 was 2450 ± 650 nM; in test [3], 3470 ± 470 nM; in test [1] (setting [5]), 550 ± 60 nM; in test [4] (Table 2), 570 ± 90 nM; in test [2] (setting [5]), 730 ± 50 nM. Moreover, the “IC50 Paca SI” value in the test on pancreatic cancer PacaS1 is 8010 ± 1400 nM. The “resistance factor (IC50 CEM/VBL vs IC50 of the parent cell line)” value in test [1] came out at 0.75 ×.
In the case of `CCNC(=O)OCc1c(COC(=O)NCC)c2c3ccccc3c(N3CCOCC3)nn2c1-c1ccc(OC)cc1` [BO-2630], the IC50 worked out at 7210 ± 250 nM in test [1] (setting [5]) and 6120 ± 880 nM in [2] (setting [5]). In test [1], the “resistance factor (IC50 CEM/VBL vs IC50 of the parent cell line)” value is 1.18 ×.
With `CCNC(=O)OCc1c(COC(=O)NCC)c2c3cc4ccccc4cc3c(N(C)C)nn2c1C` [BO-2772, (6-(Dimethylamino)-3-methylbenzo[g]pyrrolo[2,1-α]phthalazine-1,2-diyl)-bis(methylene) bis(ethylcarbamate)], the IC50 in test [1] (setting [5]) turned out to be 99 ± 6 nM; in [4] (Table 3) it was 270 ± 310 nM; in the test on H211, 320 ± 200 nM; in the test on H82, 520 ± 160 nM; in the test with H146, 1670 ± 240 nM; with H1417, 1010 ± 490 nM. For the same compound, in test [2] (setting [5]), the IC50 was 138 ± 8 nM. The “resistance factor (IC50 CEM/VBL vs IC50 of the parent cell line)” value in test [1] is reported as 0.71 ×.
For `COc1cc([C@@H]2c3cc4c(cc3[C@@H](O[C@@H]3O[C@@H]5CO[C@@H](C)O[C@H]5[C@H](O)[C@H]3O)[C@H]3COC(=O)[C@H]23)OCO4)cc(OC)c1O` [Etoposide, reference compound], the IC50 is 200 ± 260 nM in [4] (Homo sapiens, NCI-H526, Table 3); 70 ± 10 nM in the test with H211 (Homo sapiens, NCI-H211); 1080 ± 420 nM in the test on H82 (Homo sapiens, NCI-H82); 2910 ± 170 nM in the test on H146 (Homo sapiens, NCI-H146); 4530 ± 3180 nM with H1417 (Homo sapiens, NCI-H1417).
For `CCNC(=O)OCc1c(COC(=O)NCC)c2c3cc4ccccc4cc3c(N3CCCCC3)nn2c1C` [BO-2757], the IC50 in test [1] (setting [5]) came out at 1200 ± 140 nM; in [4] (Table 3) it was 540 ± 180 nM; in the test with H211, 1030 ± 250 nM; in the test on H82, 1580 ± 10 nM; in the test with H146, 4190 ± 700 nM; in the test on H1417, 3940 ± 110 nM. Also, the IC50 in test [2] (setting [5]) was determined as 950 ± 50 nM. Besides, the “resistance factor (IC50 CEM/VBL vs IC50 of the parent cell line)” value in [1] is on record as 1.26 ×.
Regarding `Cc1c(COC(=O)NC(C)C)c(COC(=O)NC(C)C)c2c3ccccc3c(N3CCCC3)nn12` [BO-2717], the IC50 was found to be 3160 ± 180 nM in test [1] (setting [5]) and 4110 ± 150 nM in test [2] (setting [5]). Besides, in [1], the “resistance factor (IC50 CEM/VBL vs IC50 of the parent cell line)” value is on record as 0.77 ×.
As to `COc1ccc(-c2c(CO)c(CO)c3c4ccccc4c(N4CCOCC4)nn23)cc1` [BO-2629], the IC50 in the test with colon cancer HCT-116 is 5200 ± 430 nM; in test [3], 18700 ± 1810 nM; in [1] (setting [5]), 5750 ± 620 nM; in test [4] (Table 2) it was 1950 ± 260 nM; in test [2] (setting [5]) it was 6630 ± 1740 nM. For the same compound, the “IC50 Paca SI” value in the test with pancreatic cancer PacaS1 is 36630 ± 1040 nM. In [1], the “resistance factor (IC50 CEM/VBL vs IC50 of the parent cell line)” value was found to be 0.86 ×.
On to `CCNC(=O)OCc1c(COC(=O)NCC)c2c3cc4ccccc4cc3c(N3CCCC3)nn2c1C` [BO-2763, (3-Methyl-6-(pyrrolidin-1-yl)benzo[g]pyrrolo[2,1-α]phthalazine-1,2-diyl)-bis(methylene) bis(ethylcarbamate)], for which the IC50 stood at 250 ± 60 nM in [1] (setting [5]); 180 ± 60 nM in test [4] (Table 3); 680 ± 590 nM in the test with H211; 1580 ± 1370 nM with H82; 2160 ± 500 nM in the test with H146; 1150 ± 150 nM in the test with H1417. Further, the IC50 in test [2] (setting [5]) was 420 ± 70 nM. The “resistance factor (IC50 CEM/VBL vs IC50 of the parent cell line)” value in [1] stood at 0.59 ×.
For the compound `N.N.O=C([O-])C1(C(=O)[O-])CCC1.[Pt+2]` [Carboplatin, reference compound], the IC50 in test [4] (Table 3) worked out at 6430 ± 140 nM; with H211 it was 13900 ± 1560 nM; in the test with H146, 37100 ± 6380 nM; in the test with H1417, 8640 ± 1930 nM.
`Cc1c(CO)c(CO)c2c3ccccc3c(N(C)C)nn12` [BO-2785]: the IC50 in test [1] (setting [5]) came to 2940 ± 260 nM; in test [2] (setting [5]) it was 3330 ± 390 nM. For the same compound, the “resistance factor (IC50 CEM/VBL vs IC50 of the parent cell line)” value in test [1] worked out at 0.88 ×.
Consider `CCc1c(COC(=O)NC(C)C)c(COC(=O)NC(C)C)c2c3ccccc3c(N3CCOCC3)nn12` [BO-2626], for which the IC50 in test [1] (setting [5]) was found to be 1580 ± 200 nM; in test [2] (setting [5]), 3680 ± 250 nM. Further, the “resistance factor (IC50 CEM/VBL vs IC50 of the parent cell line)” value in [1] turned out to be 0.43 ×.
Take `CCNC(=O)OCc1c(COC(=O)NCC)c2c3cc4ccccc4cc3c(N3CCOCC3)nn2c1C` [BO-2756]: the IC50 in [1] (setting [5]) stood at 320 ± 40 nM; in [4] (Table 3) it was 150 ± 87 nM; in the test on H211, 130 ± 100 nM; with H82, 740 ± 390 nM; in the test on H146, 1510 ± 830 nM; with H1417, 810 ± 20 nM. Also, in test [2] (setting [5]), the IC50 came out at 310 ± 20 nM. Moreover, the “resistance factor (IC50 CEM/VBL vs IC50 of the parent cell line)” value in test [1] is reported as 1.03 ×.
Consider `Cc1c(COC(=O)NC(C)C)c(COC(=O)NC(C)C)c2c3ccccc3c(N(C)C)nn12` [BO-2787], for which the IC50 in [1] (setting [5]) was 970 ± 170 nM; in test [2] (setting [5]), 1540 ± 220 nM. Moreover, the “resistance factor (IC50 CEM/VBL vs IC50 of the parent cell line)” value in test [1] is recorded as 0.63 ×.
For `CCNC(=O)OCc1c(COC(=O)NCC)c2c3ccccc3c(N3CCOCC3)nn2c1CC` [BO-2625] the same measures were 5110 ± 910 nM, 3440 ± 820 nM and 1.48 ×.
On to `Cc1c(COC(=O)NC(C)C)c(COC(=O)NC(C)C)c2c3ccccc3c(N3CCOCC3)nn12` [BO-2574], for which the IC50 is 960 ± 160 nM in test [1] (setting [5]) and 1170 ± 180 nM in test [2] (setting [5]). Further, the “resistance factor (IC50 CEM/VBL vs IC50 of the parent cell line)” value in test [1] came to 0.82 ×.
With `CCNC(=O)OCc1c(COC(=O)NCC)c2c3cc4ccccc4cc3c(N3CCC(N4CCCCC4)CC3)nn2c1C` [BO-2793], the IC50 in [1] (setting [5]) was 104 ± 28 nM; in [4] (Table 3), 10 ± 3 nM; with H211, 60 ± 20 nM; with H82, 90 ± 40 nM; with H146, 310 ± 210 nM; in the test with H1417, 130 ± 90 nM. Moreover, in [2] (setting [5]), the IC50 was 57 ± 4 nM. Further, the “resistance factor (IC50 CEM/VBL vs IC50 of the parent cell line)” value in test [1] is 1.82 ×.
On to `Cc1c(CO)c(CO)c2c3ccccc3c(N3CCCCC3)nn12` [BO-2720], for which the figures for the IC50 in test [1] (setting [5]) and in test [2] (setting [5]) were 1330 ± 130 nM and 1040 ± 120 nM, respectively. The “resistance factor (IC50 CEM/VBL vs IC50 of the parent cell line)” value in test [1] was determined as 1.28 ×.
Consider `CC[C@]1(O)C[C@@H]2CN(CCc3c([nH]c4ccccc34)[C@@](C(=O)OC)(c3cc4c(cc3OC)N(C)[C@H]3[C@@](O)(C(=O)OC)[C@H](OC(C)=O)[C@]5(CC)C=CCN6CC[C@]43[C@@H]65)C2)C1` [Vinblastine, reference compound], for which the results for the IC50 in test [1] (setting [6]) and in test [2] (setting [6]) were 392 ± 44.8 nM and 1.41 ± 0.1 nM, respectively. For the same compound, in test [1], the “resistance factor (IC50 CEM/VBL vs IC50 of the parent cell line)” value worked out at 278.3 ×.
With `CCNC(=O)OCc1c(COC(=O)NCC)c2c3ccccc3c(N3CCCCC3)nn2c1C` [BO-2721], the IC50 in [1] (setting [5]) was 1230 ± 200 nM; in [2] (setting [5]) it was 1280 ± 90 nM. The “resistance factor (IC50 CEM/VBL vs IC50 of the parent cell line)” value in test [1] was 0.96 ×.
For the compound `COc1ccc(-c2c(COC(=O)NC(C)C)c(COC(=O)NC(C)C)c3c4ccccc4c(N4CCOCC4)nn23)cc1` [BO-2631], the IC50 in test [1] (setting [5]) was 3070 ± 430 nM; in test [2] (setting [5]) it was 2850 ± 1520 nM. Moreover, the “resistance factor (IC50 CEM/VBL vs IC50 of the parent cell line)” value in [1] is on record as 1.07 ×.

Values taken from US11066412B2, “Substituted pyrrolo[2,1-a]phthalazines and benzo[g]pyrrolo[2,1-a]phthalazines for the treatment of cancer” (Academia Sinica, priority 2017, dated 2021).
